Series [1] has as its system H. influenzae ATCC49247. Put plainly: Antibacterial activity (MIC), standard method of the Japanese Society of Chemotherapy. Type of series: cell-based. The settings on record: Haemophilus influenzae. The procedure: (§1) Antibacterial activity of the compounds of the present invention was measured in accordance with the standard method specified by the Japanese Society of Chemotherapy.

Series [2] has as its system S. pneumoniae 104835. The description is as above. Type of series: cell-based. The settings on record: Streptococcus pneumoniae. The procedure:
as §1

For series [3], the system named is S. pyogenes JCM5674(ATCC12344). Described as above. Type of series: cell-based. The settings on record: Streptococcus pyogenes. Here is the method:
as §1

For series [4], the system named is S. epidermidis 56500. The series is described as above. Format: cell-based. The settings on record: Staphylococcus epidermidis. The procedure: as §1
Series [5] concerns S. aureus FDA 209-P. The description is as above. Type of series: cell-based. The settings on record: Staphylococcus aureus, FDA209. Here is the method:
as §1

For series [6], the system named is S. aureus 870307. The series is described as above. The settings on record: Staphylococcus aureus. Format: cell-based. The procedure:
as §1

The subject of series [7] is P. aeruginosa PAO1. The description is as above. The settings on record: Pseudomonas aeruginosa. Type of series: cell-based. The procedure: as §1
The test system of series [8] is S. pneumoniae J24. Described as above. Format: cell-based. The settings on record: Streptococcus pneumoniae. The procedure: as §1
In series [9] the test system is E. faecalis 19433. Described as above. The settings on record: Enterococcus faecalis. Type of series: cell-based. Here is the method:
as §1

For series [10], the system named is E. cloacae 03400. Described as above. Format: cell-based. The settings on record: Enterobacter cloacae. The procedure: as §1
The subject of series [11] is P. mirabilis 08103. Described as above. Format: cell-based. The settings on record: Proteus mirabilis. Here is the method:
as §1

Series [12] has as its system M(B). Caterrhalis ATCC25238. The description is as above. Type of series: cell-based. Here is the method: as §1
Series [13] deals with E. coli NIHJ. Described as above. Format: cell-based. The settings on record: Escherichia coli. The procedure: as §1
Series [14] concerns K. pneumoniae TYPE 1. The description is as above. Type of series: cell-based. The settings on record: Klebsiella pneumoniae, TYPE1. The procedure:
as §1

Series [15] concerns S. marcescens 10100. The series is described as above. Type of series: cell-based. The settings on record: Serratia marcescens. The procedure:
as §1

Series [16] in a line: Mouse phototoxicity test after intravenous administration. Format: in vivo.
The test system of series [17] is mouse bone marrow. In words: Mouse bone marrow micronucleus test after intravenous administration. Type of series: in vivo. The text has this: The compound represented by the formula 365 was confirmed to be positive for induction of micronuclei in a mouse bone marrow micronucleus test after intravenous administration.
Setting [18] is: ATCC 25238 / ATCC 49247, H. influenzae ATCC25238 as printed (second half of Table 2), read-out: MIC, H. influenzae ATCC25238.
Where [19] appears, read: M(B). Caterrhalis [sic] ATCC49247 (Table 2), read-out: MIC, M(B). Caterrhalis ATCC49247.
Where [20] appears, read: H. influenzae ATCC49247 (first half of Table 2), read-out: MIC, H. influenzae ATCC49247.
[21] abbreviates: M(B). Caterrhalis ATCC25238 (first half of Table 2), read-out: MIC, M(B). Caterrhalis ATCC25238.

≈ marks a conversion by molar mass, not a printed value. Where two headings read alike, the source gives them in different places. Bounds are passed on as bounds.

As for `COc1c(N2C[C@@H]3CC=CC[C@@]3(N)C2)c(F)cc2c(=O)c(C(=O)O)cn([C@@H]3C[C@@H]3F)c12` [Example 35, 7-[(1S,6S)-1-Amino-8-azabicyclo[4.3.0]non-3-en-8-yl]-6-fluoro-1-[(1R,2S)-2-fluorocyclopropyl]-1,4-dihydro-8-methoxy-4-oxoquinoline-3-carboxylic acid], the MIC amounted to 0.012 µg/mL (≈ 0.0278 µM) in [1] (setting [18]); 0.39 µg/mL (≈ 0.904 µM) in [2]; 0.05 µg/mL (≈ 0.116 µM) in [3]; 0.05 µg/mL (≈ 0.116 µM) in series [4]; 0.025 µg/mL (≈ 0.0579 µM) in series [5]; 0.2 µg/mL (≈ 0.464 µM) in [6]. The MIC in series [7] was 0.39 µg/mL (≈ 0.904 µM); in series [8], 0.05 µg/mL (≈ 0.116 µM); in series [9] it was 0.2 µg/mL (≈ 0.464 µM); in [10] it was 0.012 µg/mL (≈ 0.0278 µM); in series [11] it was 0.025 µg/mL (≈ 0.0579 µM); in [12] (setting [19]) it was 0.025 µg/mL (≈ 0.0579 µM). Moreover, the MIC in [13] was determined as 0.006 µg/mL (≈ 0.0139 µM); in series [14] it was 0.05 µg/mL (≈ 0.116 µM); in series [15], 0.1 µg/mL (≈ 0.232 µM).

`COc1c(N2C[C@@H]3CCC[C@]3(N)C2)c(F)cc2c(=O)c(C(=O)O)cn([C@@H]3C[C@@H]3F)c12` (single isomer, unassigned) [Example 11, 7-{(1R*,5S*)-1-Amino-3-azabicyclo[3.3.0]octan-3-yl}-6-fluoro-1-[(1R,2S)-2-fluorocyclopropyl]-8-methoxy-1,4-dihydro-4-oxoquinoline-3-carboxylic acid]: the melting point – broadly, the temperature, or range, at which the solid turns liquid – was 169 to 172 °C. In [16], the phototoxicity result was “negative”. Besides, the MIC in [1] (setting [20]) amounted to 0.006 µg/mL (≈ 0.0143 µM). Moreover, the MIC in series [2] turned out to be 0.39 µg/mL (≈ 0.93 µM). For the same compound, the MIC in series [3] stood at 0.025 µg/mL (≈ 0.0596 µM). Further, in [4], the MIC was 0.05 µg/mL (≈ 0.119 µM). In [5], this compound came in with an MIC of 0.012 µg/mL (≈ 0.0286 µM). For the same compound, in series [6], the MIC came to 0.78 µg/mL (≈ 1.86 µM). In addition, in series [7], the MIC was 0.78 µg/mL (≈ 1.86 µM). Moreover, in series [8], the MIC was found to be 0.05 µg/mL (≈ 0.119 µM). This compound also gave an MIC in series [9] of 0.1 µg/mL (≈ 0.238 µM). In [10], the MIC was found to be 0.012 µg/mL (≈ 0.0286 µM). The compound further had an MIC in [11] of 0.05 µg/mL (≈ 0.119 µM). Besides, in series [12] (setting [21]), the MIC worked out at 0.025 µg/mL (≈ 0.0596 µM). Moreover, the MIC in [13] stood at 0.025 µg/mL (≈ 0.0596 µM). In addition, the MIC in series [14] was 0.1 µg/mL (≈ 0.238 µM). This compound registered an MIC in series [15] of 0.1 µg/mL (≈ 0.238 µM). Also, in series [17], the induction of micronuclei entry was “negative”.

For the compound `COc1c(N2C[C@@H]3CCOC[C@@]3(N)C2)c(F)cc2c(=O)c(C(=O)O)cn([C@@H]3C[C@@H]3F)c12` [Example 43, 7-[(1S,6S)-1-Amino-8-aza-3-oxabicyclo[4,3,0]nonan-8-yl]-6-fluoro-1-[(1R,2S)-2-fluorocyclopropyl]-1,4-dihydro-8-methoxy-4-oxoquinoline-3-carboxylic acid], the MIC in series [1] (setting [18]) is 0.006 µg/mL (≈ 0.0138 µM); in series [2] it was 0.78 µg/mL (≈ 1.79 µM); in series [3] it was 0.05 µg/mL (≈ 0.115 µM); in [4], 0.05 µg/mL (≈ 0.115 µM); in series [5], 0.012 µg/mL (≈ 0.0276 µM); in [6] it was 0.2 µg/mL (≈ 0.459 µM). For the same compound, the MIC in series [7] was 0.78 µg/mL (≈ 1.79 µM); in series [8], 0.1 µg/mL (≈ 0.23 µM); in series [9] it was 0.2 µg/mL (≈ 0.459 µM); in series [10], 0.012 µg/mL (≈ 0.0276 µM); in [11], 0.025 µg/mL (≈ 0.0574 µM); in series [12] (setting [19]), 0.025 µg/mL (≈ 0.0574 µM). The MIC in [13] came to 0.006 µg/mL (≈ 0.0138 µM); in series [14] it was 0.05 µg/mL (≈ 0.115 µM); in series [15], 0.2 µg/mL (≈ 0.459 µM).

For `Cc1c(N2C[C@@H]3CCOC[C@@]3(N)C2)c(F)cc2c(=O)c(C(=O)O)cn([C@@H]3C[C@@H]3F)c12` [Example 44, 7-[(1S,6S)-1-Amino-3-oxa-8-azabicyclo[4,3,0]nonan-8-yl]-6-fluoro-1-[(1R,2S)-2-fluorocyclopropyl]-1,4-dihydro-8-methyl-4-oxoquinoline-3-carboxylic acid], the melting point is 159 to 161 °C. The MIC in series [1] (setting [18]) was not above 0.003 µg/mL. The MIC in [2] amounted to 0.39 µg/mL (≈ 0.93 µM). Moreover, the MIC in series [3] was found to be 0.05 µg/mL (≈ 0.119 µM). The compound also returned an MIC in [4] of 0.025 µg/mL (≈ 0.0596 µM). In [5], this compound showed an MIC of 0.012 µg/mL (≈ 0.0286 µM). In series [6], this compound registered an MIC of 0.2 µg/mL (≈ 0.477 µM). The same compound showed an MIC in [7] of 0.39 µg/mL (≈ 0.93 µM). Also, in [8], the MIC worked out at 0.05 µg/mL (≈ 0.119 µM). This compound also showed an MIC in [9] of 0.1 µg/mL (≈ 0.238 µM). The MIC in series [10] was found to be 0.006 µg/mL (≈ 0.0143 µM). This compound returned an MIC in [11] of 0.025 µg/mL (≈ 0.0596 µM). The MIC in [12] (setting [19]) turned out to be 0.006 µg/mL (≈ 0.0143 µM). The MIC in series [13] was not above 0.003 µg/mL. Besides, the MIC in [14] worked out at 0.025 µg/mL (≈ 0.0596 µM). Moreover, in series [15], the MIC was 0.05 µg/mL (≈ 0.119 µM).

For `COc1c(N2C[C@H]3C4(CC4)C[C@@]3(N)C2)c(F)cc2c(=O)c(C(=O)O)cn([C@@H]3C[C@@H]3F)c12` [Example 10, 7-[(1S,5R)-1-Amino-6-spirocyclopropane-3-azabicyclo[3.2.0]heptan-3-yl]-1-[(1R,2S)-2-fluorocyclopropyl]-6-fluoro-1,4-dihydro-8-methoxy-4-oxoquinoline-3-carboxylic acid], the melting point was 182 to 203 °C (dec.). In addition, in series [1] (setting [20]), the MIC turned out to be 0.012 µg/mL (≈ 0.0278 µM). This compound returned an MIC in [2] of 0.2 µg/mL (≈ 0.464 µM). The MIC in series [3] stood at 0.025 µg/mL (≈ 0.0579 µM). The MIC in [4] stood at 0.025 µg/mL (≈ 0.0579 µM). This compound yielded an MIC in series [5] of 0.006 µg/mL (≈ 0.0139 µM). In series [6], this compound came in with an MIC of 0.1 µg/mL (≈ 0.232 µM). For the same compound, the MIC in series [7] was determined as 0.78 µg/mL (≈ 1.81 µM). In series [8], the MIC was 0.025 µg/mL (≈ 0.0579 µM). In series [9], this compound returned an MIC of 0.1 µg/mL (≈ 0.232 µM). The MIC in series [10] turned out to be 0.025 µg/mL (≈ 0.0579 µM). The same compound showed an MIC in series [11] of 0.05 µg/mL (≈ 0.116 µM). Besides, in series [12] (setting [21]), the MIC came to 0.025 µg/mL (≈ 0.0579 µM). In series [13], this compound had an MIC of 0.025 µg/mL (≈ 0.0579 µM). The compound also displayed an MIC in series [14] of 0.2 µg/mL (≈ 0.464 µM). Also, the MIC in [15] amounted to 0.2 µg/mL (≈ 0.464 µM).

These data come from patent US8618094B2, “Fused substituted aminopyrrolidine derivative” (Daiichi Sankyo Company, Limited, priority 2007, dated 2013).
